Laboratory results taken from US6069130A, “Ketoheterocyclic inhibitors of factor Xa” (COR Therapeutics, Inc., priority 1995, dated 2000).

Columns and labels:
[1] = test system: thrombus growth in abdominal vena cava; assay: rabbit deep vein thrombosis model, inhibition of thrombus growth; assay type: in vivo; settings: for of Thrombosis (inhibition of thrombus growth): rabbit
Description: (§1) Rabbits were anesthetized with I.M. injections of Ketamine, Xylazine, and Acepromazine cocktail. A standardized protocol consisted of insertion of a thrombogenic cotton thread and copper wire apparatus into the abdominal vena cava of the anesthetized rabbit. A non-occlusive thrombus was allowed to develop in the central venous circulation and inhibition of thrombus growth was used as a measure of the antithrombotic activity of the studied compounds. Test agents or control saline were administered through a marginal ear vein catheter. A femoral vein catheter was used for blood sampling prior to and during steady state infusion of test compound. Initiation of thrombus formation begins immediately after advancement of the cotton thread apparatus into the central venous circulation. Test compounds were administered from time=30 min to time=150 min at which the experiment was terminated. The rabbits were euthanized and the thromidus excised by surgical dissection and characterized by weight and histology. Blood samples were analyzed for changes in hematological and coagulation parameters.

[2] = coagulation parameters (aPTT, PT) in rabbit venous thrombosis model; assay type: in vivo; settings: for fold increase over baseline PT / fold increase over baseline aPTT: rabbit, steady state, mean ± SD
Description: as §1

[3] = rabbit, in vivo
Description: as §1

[4] = highest dose (100 μg/kg+2.57 μg/kg/min)

effects on hematological parameters as compared to saline controls (in words) [3]: no significant effects
Structure (SMILES): NC(N)=NCCCC(N)C(=O)NCC(=O)NC(CCCN=C(N)N)C(=O)c1nccs1 [H-D-Arg-Gly-Arg-thiazole, (D)-Arg-Gly-Arg-thiazole]
antithrombotic efficacy in the rabbit venous thrombosis model (in words) ([1]; at the higher doses evaluated): demonstrated antithrombotic efficacy at the higher doses evaluated | of Thrombosis (inhibition of thrombus growth) ([1]; i.v. 50 μg/kg + 1.28 μg/kg/min): -7.84 | of Thrombosis (inhibition of thrombus growth) ([1]; i.v. 75 μg/kg + 1.93 μg/kg/min): 42.955 | of Thrombosis (inhibition of thrombus growth) ([1]; i.v. 100 μg/kg + 2.57 μg/kg/min): 117.72 | effect on PT prolongation (in words) [2, 4]: no significant effect | effect on aPTT prolongation (in words) [2, 4]: no significant effect | fold increase over baseline PT ([2]; 50 μg/kg + 1.28 μg/kg/min): 1.00 ± 0.00 fold | fold increase over baseline aPTT ([2]; 50 μg/kg + 1.28 μg/kg/min): 1.00 ± 0.03 fold | fold increase over baseline PT ([2]; 75 μg/kg + 1.93 μg/kg/min): 1.00 ± 0.00 fold | fold increase over baseline aPTT ([2]; 75 μg/kg + 1.93 μg/kg/min): 1.02 ± 0.03 fold | fold increase over baseline PT ([2]; 100 μg/kg + 2.57 μg/kg/min): 0.83 ± 0.00 fold | fold increase over baseline aPTT ([2]; 100 μg/kg + 2.57 μg/kg/min): 1.08 ± 0.02 fold
